≈ marks a conversion by molar mass, not a printed value.

For assay [1], the system named is Staphylococcus aureus. Put plainly: Inhibition of growth of Staphylococcus aureus (CN491) measured as MIC compound/MIC Trimethoprim. It counts as functional.
The test system of assay [2] is Shigella flexneri. In words: Inhibition of growth of Shigella flexneri (CN6007) measured as MIC compound/MIC Trimethoprim. It counts as functional.
In assay [3] the test system is Klebsiella pneumoniae. In words: Inhibition of growth of Klebsiella pneumoniae (CN3632) measured as MIC compound/MIC Trimethoprim. The class given is functional.
Assay [4] concerns Proteus vulgaris. In words: Inhibition of growth of Proteus vulgaris (CN329) measured as MIC compound/MIC Trimethoprim. The class given is functional.
Another assay relates to Neisseria gonorrhoeae. Put plainly: Inhibition of growth of Neisseria gonorrhoeae. It counts as functional.
Assay [5] has as its system Escherichia coli. Put plainly: Inhibition of growth of Escherichia coli (CN314) measured as MIC compound/MIC Trimethoprim. It counts as functional.
Assay [6] relates to Klebsiella aerogenes. In words: Inhibition of growth of Enterobacter aerogenes (2200/186) measured as MIC(compound/MIC Trimethoprim. It counts as functional.
Another assay concerns the target T1, Dihydrofolate reductase (Rattus norvegicus, UniProt Q920D2).
T1 sequence (Q920D2 whole entry): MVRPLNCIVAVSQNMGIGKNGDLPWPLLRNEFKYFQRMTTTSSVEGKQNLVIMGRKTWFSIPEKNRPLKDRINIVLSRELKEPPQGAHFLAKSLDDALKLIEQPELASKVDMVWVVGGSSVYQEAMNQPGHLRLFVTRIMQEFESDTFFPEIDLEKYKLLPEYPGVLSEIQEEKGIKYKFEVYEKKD
Put plainly: Inhibition of Rat liver Dihydrofolate reductase(DHFR). The conditions noted are these: read-out: I50.

In assay [7] the test system is Vibrio cholerae. In words: Inhibition of growth of Vibrio cholera (ATCC 14035) measured as MIC compound/MIC Trimethoprim. It counts as functional.
For assay [8], the system named is Proteus vulgaris. Put plainly: Inhibition of growth of Proteus vulgaris (CN329) was measured.
Assay [9] deals with Shigella flexneri. In words: Inhibition of growth of Shigella flexneri (CN6007) was measured.
In assay [10] the test system is Mycolicibacterium smegmatis. In words: Inhibition of growth of Mycobacterium smegmatis (S3254) was measured.
The subject of assay [11] is Vibrio cholerae. In words: microbe, parasite or virus in culture. The following applies: ATCC 14035.
Description: Inhibition of growth of Vibrio cholera (ATCC 14035) was measured
Assay [12] has as its system Staphylococcus aureus. Put plainly: Inhibition of growth of Staphylococcus aureus (CN491) was measured.
Assay [13] relates to Klebsiella pneumoniae. In words: Inhibition of growth of Klebsiella pneumoniae (CN3632) was measured.
The subject of assay [14] is Escherichia coli. In words: Inhibition of growth of Escherichia coli (CN314) was measured.
Assay [15] concerns Klebsiella aerogenes. Put plainly: microbe, parasite or virus in culture.
Description: Inhibition of growth of Enterobacter aerogenes (2200/186) was measured
In a further assay the test system is Serratia marcescens. In words: Inhibition of growth of Serratia marcescens (CN2398) was measured.

On to `CCc1cc(Cc2cnc(N)nc2N)cc(C)c1OC`, for which the MIC ratio with Staphylococcus aureus [1] was 3; with Shigella flexneri [2], 30; in the assay on Klebsiella pneumoniae [3], 30; with Proteus vulgaris [4] it was 3; in the assay with Escherichia coli [5], 30; with Klebsiella aerogenes [6], 30. The same compound registered an MIC with Neisseria gonorrhoeae of 140 µM (≈ 38.1 µg/mL).

Turning to `CCc1cc(Cc2cnc(N)nc2N)cc(C)c1O`, the MIC ratio came to 1 with Staphylococcus aureus [1]; 3 in the assay with Shigella flexneri [2]; 3 in the assay on Klebsiella pneumoniae [3]; 3 with Escherichia coli [5]; 3 with Klebsiella aerogenes [6].

Consider `C=CCc1cc(Cc2cnc(N)nc2N)cc(CCC)c1O`, for which the IC50 on Dihydrofolate reductase stood at 3.63 µM.

Turning to `CCCc1cc(Cc2cnc(N)nc2N)cc(CC)c1O`, the MIC ratio in the assay with Staphylococcus aureus [1] came to 0.3; with Shigella flexneri [2], 3; in the assay with Klebsiella pneumoniae [3], 3; in the assay with Proteus vulgaris [4], 3; with Escherichia coli [5], 10; in the assay with Klebsiella aerogenes [6], 10. Besides, the MIC stood at 1 µg/mL (≈ 3.49 µM) against Vibrio cholerae [7] and 9 µM (≈ 2.58 µg/mL) in the assay with Neisseria gonorrhoeae.

For `Cc1cc(Cc2cnc(N)nc2N)cc(C)c1O`, the MIC ratio in the assay on Staphylococcus aureus [1] worked out at 10; in the assay on Klebsiella pneumoniae [3], 3; in the assay on Proteus vulgaris [4], 3; with Escherichia coli [5] it was 10; in the assay on Klebsiella aerogenes [6], 1.

With `COc1c(C(C)(C)C)cc(Cc2cnc(N)nc2N)cc1C(C)(C)C`, the MIC ratio in the assay on Staphylococcus aureus [1] was 30; in the assay with Klebsiella pneumoniae [3], over 1000; in the assay on Proteus vulgaris [4], over 1000; with Escherichia coli [5] it was 10000; with Klebsiella aerogenes [6] it was over 1000. Further, in the assay on Neisseria gonorrhoeae, the MIC was 13 µM (≈ 4.45 µg/mL).

As for `Cc1cc(Cc2cnc(N)nc2N)cc(C(C)(C)C)c1O`, the MIC ratio in the assay with Staphylococcus aureus [1] was determined as 3; with Shigella flexneri [2] it was 30; in the assay on Klebsiella pneumoniae [3], 100; in the assay with Proteus vulgaris [4], 100; in the assay with Escherichia coli [5] it was 100; in the assay on Klebsiella aerogenes [6], 100.

For `COc1c(C)cc(Cc2cnc(N)nc2N)cc1C`, the MIC ratio in the assay on Staphylococcus aureus [1] stood at 100; with Klebsiella pneumoniae [3], 300; in the assay on Proteus vulgaris [4], 300; with Escherichia coli [5], 1000; in the assay on Klebsiella aerogenes [6], 1000. The same compound registered an MIC against Neisseria gonorrhoeae of 200 µM (≈ 51.7 µg/mL).

`CCc1cc(Cc2cnc(N)nc2N)cc(CC)c1OC`: the MIC ratio in the assay on Staphylococcus aureus [1] is 0.3; in the assay on Shigella flexneri [2], 3; in the assay on Klebsiella pneumoniae [3] it was 10; in the assay with Proteus vulgaris [4], 30; in the assay with Escherichia coli [5], 3; in the assay on Klebsiella aerogenes [6], 10.

With `CCCc1cc(Cc2cnc(N)nc2N)cc(CCC)c1OC`, the MIC ratio in the assay on Staphylococcus aureus [1] was 1; with Shigella flexneri [2], 100; in the assay on Klebsiella pneumoniae [3] it was 30; with Proteus vulgaris [4], 30; in the assay on Escherichia coli [5] it was 30; in the assay with Klebsiella aerogenes [6] it was 100. In the assay with Vibrio cholerae [7], the MIC turned out to be 10 µg/mL (≈ 31.8 µM).

Consider `CC(C)(C)c1cc(Cc2cnc(N)nc2N)cc(C(C)(C)C)c1O`, for which the MIC ratio in the assay with Staphylococcus aureus [1] is 30; with Shigella flexneri [2], over 1000; in the assay with Klebsiella pneumoniae [3] it was over 1000; in the assay on Proteus vulgaris [4] it was over 1000; in the assay on Escherichia coli [5], over 1000; with Klebsiella aerogenes [6], over 1000. In the assay with Neisseria gonorrhoeae, this compound had an MIC of 35 µM (≈ 11.5 µg/mL).

In the case of `CCCc1cc(Cc2cnc(N)nc2N)cc(CCC)c1O`, the MIC ratio in the assay with Staphylococcus aureus [1] came to 0.3; in the assay on Shigella flexneri [2] it was 10; with Klebsiella pneumoniae [3], 30; with Proteus vulgaris [4], 30; in the assay with Escherichia coli [5], 10; in the assay on Klebsiella aerogenes [6] it was 30. In addition, the MIC in the assay on Vibrio cholerae [7] stood at 1 µg/mL (≈ 3.33 µM).

The compound `CCOc1cc(Cc2cnc(N)nc2N)cc(OC)c1OC` gave an MIC against Neisseria gonorrhoeae of 180 µM (≈ 54.8 µg/mL).

As for `CCCc1cc(Cc2cnc(N)nc2N)cc(CC)c1OC`, the MIC ratio with Staphylococcus aureus [1] was determined as 0.3; in the assay with Shigella flexneri [2], 30; in the assay with Klebsiella pneumoniae [3], 30; with Proteus vulgaris [4], 30; in the assay on Escherichia coli [5], 30; in the assay with Klebsiella aerogenes [6], 100. The IC50 on Dihydrofolate reductase was found to be 30 µM. In addition, the MIC with Vibrio cholerae [7] worked out at 10 µg/mL (≈ 33.3 µM); against Neisseria gonorrhoeae, 17.5 µM (≈ 5.26 µg/mL).

On to `COc1cc(Cc2cnc(N)nc2N)cc(OC)c1OC` [TRIMETHOPRIM], for which the MIC (in the assay on Proteus vulgaris [8]; with Shigella flexneri [9]; in assay [10]; in the assay on Vibrio cholerae [11]; in the assay with Staphylococcus aureus [12]; against Klebsiella pneumoniae [13]) was 1 µg/mL (≈ 3.44 µM) throughout. The MIC was 1 µg/mL (≈ 3.44 µM) in the assay with Salmonella; 1 µg/mL (≈ 3.44 µM) against Escherichia coli [14]; 1 µg/mL (≈ 3.44 µM) in the assay on Klebsiella aerogenes [15]; 240 µM (≈ 69.7 µg/mL) with Neisseria gonorrhoeae; 1 µg/mL (≈ 3.44 µM) against Serratia marcescens.

As for `CCc1cc(Cc2cnc(N)nc2N)cc(CC)c1O`, the MIC ratio turned out to be 3 with Staphylococcus aureus [1]; 10 in the assay on Shigella flexneri [2]; 10 in the assay on Klebsiella pneumoniae [3]; 10 in the assay with Proteus vulgaris [4]; 3 in the assay on Escherichia coli [5]; 10 with Klebsiella aerogenes [6]. In the assay with Vibrio cholerae [7], this compound had an MIC of 1 µg/mL (≈ 3.67 µM).

Consider `C/C=C/c1cc(Cc2cnc(N)nc2N)cc(OC)c1OC`, for which the MIC against Neisseria gonorrhoeae was 110 µM (≈ 33 µg/mL).

For the compound `COc1c(C(C)C)cc(Cc2cnc(N)nc2N)cc1C(C)C`, the MIC ratio was 30 with Staphylococcus aureus [1]; over 1000 with Klebsiella pneumoniae [3]; over 1000 with Proteus vulgaris [4]; 3000 in the assay on Escherichia coli [5]; over 1000 in the assay with Klebsiella aerogenes [6].

Consider `COc1c(C)cc(Cc2cnc(N)nc2N)cc1C(C)(C)C`, for which the MIC ratio in the assay on Staphylococcus aureus [1] was 10; with Shigella flexneri [2], 300; in the assay on Klebsiella pneumoniae [3], over 100; in the assay on Proteus vulgaris [4], over 30; with Escherichia coli [5] it was 100; with Klebsiella aerogenes [6], 300. This compound had an MIC in the assay on Vibrio cholerae [7] of 10 µg/mL (≈ 33.3 µM).

In turn, `C=CCc1cc(Cc2cnc(N)nc2N)cc(OC)c1OC` gave an MIC with Neisseria gonorrhoeae of 110 µM (≈ 33 µg/mL).

As for `CCCc1cc(Cc2cnc(N)nc2N)cc(OC)c1OC`, in the assay with Neisseria gonorrhoeae, the MIC worked out at 54 µM (≈ 16.3 µg/mL).

For the origin of these results see ChEMBL document CHEMBL1124217, “2,4-Diamino-5-benzylpyrimidines and analogues as antibacterial agents. 9. Lipophilic trimethoprim analogues as antigonococcal agents” (J Med Chem, 1988).
